# Reference: patent US8722674B2, “1,3,5-triazine-2,4,6-triamine compound or pharmaceutical acceptable salt thereof, and pharmaceutical composition comprising the same” (Hanall Biopharma Co., Ltd., priority 2007, dated 2014)
# Legend:
# HepG2 cells [1] = experiment: Measurement of cholesterol synthesis ability (Amplex red fluorescence); assay type: cell-based; details: for activity at 250 µM / activity at 100 µM: Homo sapiens, HepG2 cells, 24 h treatment, lower is better, read-out: cholesterol synthesis ability, % control
# Description: (§1) Metformin that is widely used in type 2 diabetic patients inhibits the formation of glucose, the synthesis of cholesterol and triglyceride in liver cells and promote the absorption of glucose from blood vessels in the muscle cells. […] In the case of the ability to form cholesterol, triglyceride and glucose, the lower the numerical value, the better the effect. Numerical values for a control group become reference values.
# (§2) As a hepatic cell model, HepG2 cells were used to measure cholesterol synthesis inhibitory ability, which is the important function of AMPK. The hepatic cell model HepG2 cells were cultured in 1% serum-containing media for 24 hours, and then treated with each of the compounds for 24 hours. Then, the cells were disrupted with lysis buffer (0.1 M potassium phosphate, pH 7.4, 0.05 M NaCl, 5 mM cholic acid, 0.1% Triton X-100). To the disrupted cells, the same volume of a reaction solution (2 U/ml cholesterol oxidizing agent, 2 U/ml peroxidase, 0.2 U/ml cholesterol esterase, and 300 μM Amplex red as a fluorescent factor) was added and allowed to react at 37° C. for 30 minutes. After completion of the reaction, the cells were measured with a fluorometer at a wavelength of 560/590 nm (ex/em), thus quantifying the amount of […] formed in the cells. A lower measurement value means an increased lipid production inhibitory ability.
# HepG2 cells [2] = experiment: Measurement of triglyceride (Amplex red fluorescence); assay type: cell-based; details: Homo sapiens, 24 h treatment, lower is better, read-out: triglyceride synthesis ability, % control
# Experimental: as §1
# as §2, with “model,” for “model, HepG2 cells were used to measure cholesterol synthesis inhibitory ability, which is the important function of AMPK. The hepatic cell model”, “(0.1M” for “(0.1 M”, “(0.76” for “(2”, “glycerol kinase, […] peroxidase, 22.2 U/ml glycerol” for “cholesterol”, “agent,” for “agent, 2 U/ml peroxidase, 0.2 U/ml cholesterol esterase,”
# HepG2 cells [3] = experiment: Measurement of gluconeogenesis (14C-lactate); assay type: cell-based; details: Homo sapiens, 24 h treatment, lower is better, read-out: gluconeogenesis (glucose synthesis ability), % control
# Experimental: as §1
# As a hepatic cell model, HepG2 cells were cultured in 10% serum-containing high glucose media, and then treated with each of the compounds for 24 hours. Then, the cells were treated with 0.5 uCi 14C-lactate and 10 mM L-lactate, and cultured for 4 hours. After cultivation, the media of the cells were removed, and the cells were washed with PBS, treated with 0.1N NaOH and left to stand at room temperature for 1 hour. Then, the cells were neutralized with 1N HCl, and the amount of glucose formed in the cells was measured with a liquid scintillation counter. […] A lower measurement value means a stronger blood glucose lowering activity.
# C2C12 cells = experiment: Measurement of glucose absorption (3H-deoxy-glucose); assay type: cell-based; details: Mus musculus, differentiated C2C12 muscle cells, with 1 μM insulin 24 h, higher is better, read-out: glucose absorption, % control
# Description: as §1
# As a muscle cell model, C2C12 cells were induced to differentiate into muscle cells in 2% bovine fetal serum for 6 days. The C2C12 cells which differentiated into muscle cells were treated with each of the compounds in serum-free low glucose media, and then cultured with 1 μM of insulin for 24 hours. After cultivation, the cells were treated with 1 μCi 3H-deoxy-glucose and 10 μM deoxy-glucose at 37° C. for 15 minutes. After treatment, the media were removed, and the cells were washed twice with PBS. The washed cells were treated with 0.1 N NaOH and neutralized with 1N HCl. The amount of glucose absorbed into the cells was measured with a liquid scintillation counter. The effect of the compounds was determined by selecting a compound showing an absorption effect of at least 200%, dividing the absorption effect by the average percent of the control group, and then multiplying the divided value by […]. A higher measurement value means a stronger ability to reduce insulin resistance.
Compound,melting point,activity at 250 µM (HepG2 cells [1]),activity at 250 µM (HepG2 cells [2]),activity at 500 µM (HepG2 cells [3]),activity at 250 µM (C2C12 cells),activity at 100 µM (HepG2 cells [1]),activity at 100 µM (HepG2 cells [2]),activity at 100 µM (HepG2 cells [3]),activity at 100 µM (C2C12 cells),activity at 200 µM (HepG2 cells [3]),activity at 200 µM (C2C12 cells),"effect on cholesterol synthesis, times better than the control group (HepG2 cells [1]; by comparison of used amounts vs control group (metformin 2 mM))"
"Nc1nc(N)nc(NCc2ccc3c(c2)OCO3)n1 [Example 6, N2-(benzo[d][1,3]dioxol-5-ylmethyl)-1,3,5-triazine-2,4,6-triamine]",140.8 to 142.9 °C,92.7%,108%,82.3%,114%,–,–,–,–,–,–,–
"Cc1ccc(CNc2nc(N)nc(N(C)C)n2)cc1 [Example 14, N2,N2-dimethyl-N4-(4-methylbenzyl)-1,3,5-triazine-2,4,6-triamine]",139 to 143 °C,–,–,–,–,87.8%,92%,75.4%,113%,–,–,–
"CN(C)c1nc(N)nc(NCc2ccoc2)n1 [Example 12, N2-(furan-3-ylmethyl)-N4,N4-dimethyl-1,3,5-triazine-2,4,6-triamine]",151.6 to 152 °C,–,–,–,–,92.4%,87.7%,–,–,78.6%,180%,–
"CN(C)c1nc(N)nc(N(C)C)n1 [Example 10, N2,N2,N4,N4-tetramethyl-1,3,5-triazine-2,4,6-triamine]",227 to 228 °C,–,–,–,–,98.9%,97%,–,–,87.2%,102%,–
"CN(C)c1nc(N)nc(Nc2ccc(Cl)cc2)n1 [Example 20, N2-(4-chlorophenyl)-N4,N4-dimethyl-1,3,5-triazine-2,4,6-triamine]",164 to 167 °C,–,–,–,–,56.3%,41.4%,84.9%,132%,–,–,–
"CN(C)c1nc(N)nc(Nc2ccc3c(c2)-c2ccccc2C3)n1 [Example 25, N2-(9H-fluoren-3-yl)-N4,N4-dimethyl-1,3,5-triazine-2,4,6-triamine]",282 to 290 °C,–,–,–,–,76.8%,30.2%,49.5%,107%,–,–,at least 20 times
"CN(C)c1nc(N)nc(NCc2ccco2)n1 [Example 5, N2-(furan-2-ylmethyl)-N4,N4-dimethyl-1,3,5-triazine-2,4,6-triamine]",151.6 to 152 °C,77.5%,90.2%,68.5%,142%,–,–,–,–,–,–,–
"COc1cc(Nc2nc(N)nc(N(C)C)n2)cc(OC)c1 [Example 16, N2-(3,5-dimethoxyphenyl)-N4,N4-dimethyl-1,3,5-triazine-2,4,6-triamine]",148 to 150 °C,–,–,–,–,66.9%,79.5%,87.6%,63.2%,–,–,–

# Now from value to compound, other results behind:
melting point,Compound,activity at 250 µM (HepG2 cells [1]),activity at 250 µM (HepG2 cells [2]),activity at 500 µM (HepG2 cells [3]),activity at 250 µM (C2C12 cells),activity at 100 µM (HepG2 cells [1]),activity at 100 µM (HepG2 cells [2]),activity at 100 µM (HepG2 cells [3]),activity at 100 µM (C2C12 cells),activity at 200 µM (HepG2 cells [3]),activity at 200 µM (C2C12 cells),"effect on cholesterol synthesis, times better than the control group (HepG2 cells [1]; by comparison of used amounts vs control group (metformin 2 mM))"
73 to 76 °C,"CC(Nc1nc(N)nc(N(C)C)n1)c1cccc2ccccc12 (stereo not shown) [Example 21, N2,N2-dimethyl-N4-(1-(naphthalen-1-yl)ethyl)-1,3,5-triazine-2,4,6-triamine]",–,–,–,–,56.6%,71%,42.1%,140%,–,–,–
122 to 143 °C,"Cc1ccccc1Nc1nc(N)nc(N(C)C)n1 [Example 33, N2,N2-dimethyl-N4-o-tolyl-1,3,5-triazine-2,4,6-triamine]",–,–,–,–,65.8%,91.9%,95.6%,148%,–,–,–
196 to 216 °C,"CN(C)c1nc(N)nc(Nc2ccccc2-c2ccccc2)n1 [Example 38, N2-(biphenyl-2-yl)-N4,N4-dimethyl-1,3,5-triazine-2,4,6-triamine]",–,–,–,–,55.1%,63.3%,13.8%,92.1%,–,–,–
190 to 201 °C,"CN(C)c1nc(N)nc(Nc2ccc(-c3ccccc3)cc2)n1 [Example 37, N2-(biphenyl-4-yl)-N4,N4-dimethyl-1,3,5-triazine-2,4,6-triamine]",–,–,–,–,66.8%,80.6%,85.7%,151%,–,–,–
